Measurements as given in BigSolDB 2.1.

O=C1OC(=O)c2ccc(Br)c3cccc1c23
solubility (mole fraction)
Details | 278.15 K | 283.15 K | 288.15 K | 293.15 K | 298.15 K | 303.15 K
in acetic acid | 0.000263 | 0.000316 | 0.000382 | 0.00046 | 0.000565 | 0.000666
in acetone | 0.001 | 0.00119 | 0.00138 | 0.00161 | 0.00192 | 0.00224
in ethanol | 2.66e-05 | 3.65e-05 | 5.08e-05 | 6.99e-05 | 9.53e-05 | 0.000131
in methanol | 4.62e-05 | 6.41e-05 | 8.62e-05 | 0.000118 | 0.00016 | 0.000212
